Assay results published in patent publication US4749710A, “Immunosuppressive agents” (priority 1985, dated 1988).
Where two headings read alike, the source gives them in different places.

How the values were obtained:
[1] = system: murine cytotoxic T-lymphocyte responses; experiment: cells; assay type: cell-based; conditions: for CTL activity (% specific ^51 Cr release): 90:1 effector to target
From the text: Immunosuppressive Activity of Vitamin D compounds on cytotoxic T lymphocyte Responses-General Test Description
Cytotoxic thymus-derived lymphocytes (CTL) constitute an important aspect of immune function and, as a result, play a key role in the rejection of grafted cells, tissues and organs. It is, therefore, essential to suppress CTL generation in a clinical situation in which CTL function is antithetical to the desired outcome as, for example, in transplantation. Cytotoxic T-lymphocytes have been studied for several years by many investigators and methods to evaluate CTL responses in vitro are well established.
As described below, CTL responses as affected by Vitamin D derivatives, were studied in vitro using cells from lab animals and human volunteers. Cytotoxic T-lymphocytes were generated from responder lymphoid cells in tissue culture medium during an incubation period of 6 days by exposure to foreign stimulator cells, i.e. from a genetically disparate source. A portion of the resultant effector cells were CTL capable of killing fresh cells related to the stimulator cells employed in the 6 day culture. To detect killing of cells by CTL, fresh target cells were incubated in excess ^51 chromium (as sodium chromate) until they were extensively labelled. Since target cells will retain the internalized radioisotope as long as they are viable but release the label when they are killed, CTL activity was assessed by quantitating the chromium released from target cells after a 4 or 18 hour incubation with CTL. Immunosuppression produced by Vitamin D derivatives was gauged as the ability to inhibit CTL responses during the initial incubation period relative to control cultures to which no Vitamin D derivative was added.
Female BALB/c By and C57BL/6 mice were obtained from Jackson Laboratories and were used between 8 and 10 weeks of age. Mice were given food and water ad libitum and were kept in a 12 hour light and 12 hour dark cycle.
For murine cultures, minimal essential medium with Hank's salts was supplemented to 1 millimolar with sodium pyruvate, to 0.1 millimolar with nonessential amino acids, to 2 millimolar with 1-glutamine, to 10% (v/v) with heat-inactivated fetal bovine serum, to 50 micrograms per ml with gentamicin, and to 1000 milligrams per liter with sodium bicarbonate and was used as tissue culture medium.
Stock solutions of Vitamin D derivatives were made in argon-saturated ethanol at a final concentration of 1×10^-2 molar, were covered with argon before sealing and were stored at -20° C. in the dark. Reduced lighting conditions were always employed when working with compounds. Compounds were diluted in tissue culture medium to 1×10^-4 molar and all subsequent dilutions were done in tissue culture medium containing 1% v/v ethanol. The final dilution into culture vessels was 1:10 thus keeping the vehicle concentration constant at 0.1% while varying the concentration of compound as tabulated in the results. For purposes of control, mixed leukocyte cultures were incubated in medium only (medium control) or in medium containing a final concentration of 0.1% ethanol (vehicle control).
Murine cytotoxic T-lymphocytes were generated in mixed leukocyte cultures by known methods. Specifically, single cell suspensions were prepared from spleens by gentle disruption in balanced salt solution (Hanks' balanced salt solution supplemented to 10%, v/v, with fetal bovine serum). After sedimentation on ice to remove particulate debris, cell suspensions were centrifuged at 400xg and were resuspended in fresh balanced salt solution. Cells to be used as stimulator cells were precluded from proliferating or generating cytotoxic T-lymphocytes by exposure to 1000 rads of gamma irradiation using a ^137 cesium source. […]

[2] = system: human cytotoxic T-lymphocyte responses; experiment: Inhibition of human CTL responses (mixed leukocyte-tumor cultures, HT-144 melanoma, ^51 Cr release); assay type: cell-based; conditions: for inhibition at 0.1 µM / inhibition at 1 µM: Homo sapiens, T-lymphocyte, read-out: Inhibition of CTL activity (%)
Method: Human cells for the tests described below were taken from four donors designated I, II, III, and IV in the tables below.
Stock solutions of Vitamin D derivatives were prepared as they were prepared above in the murine tests.
Human cytotoxic T-lymphocytes were generated in mixed leukocyte-tumor cultures by known methods. Specifically, blood from normal volunteer donors was drawn into heparinized syringes, diluted 1:1 with calcium-magnesium free Hanks' balanced salt solution (Ca-Mg free HBSS), and layered over lymphocyte separation medium (Litton Bionetics, Kensington, MD). After centrifugation at 500xg for 20-30 min at room temperature, peripheral blood mononuclear cells were harvested from the interface. The peripheral blood mononuclear leukocytes were centrifuged and resuspended in Ca-Mg free HBSS and were subsequently separated from platelets by centrifugation at 500xg through a solution of 20% sucrose and 1% human AB serum in Ca-Mg free HBSS. The cells were washed once and finally resuspended in tissue culture medium. […] Cells to be used as stimulator cells in mixed leukocyte-tumor cultures were irradiated with 10,000 rads of gamma irradiation to preclude proliferation in culture. Mixed leukocyte-tumor cell cultures were established in 16 mm tissue culture wells at a final volume of 1.5 ml per well containing 2×10^6 peripheral blood mononuclear leukocytes and 5×10^4 irradiation-inactivated stimulator cells. In order to prevent the generation of nonspecific cytotoxic cells in these cultures, hydrocortisone sodium succinate was added to each culture at a final concentration of 1×10^-5 M. Mixed leukocyte-tumor cultures were incubated for 6 days in a humidified atmosphere of 5% CO2 in air.
Labelled target cells were washed free of unbound isotope by 3 serial washes in tissue culture medium and were finally resuspended at a concentration of 5×10^4 cells per ml.
Assays of human cytotoxic T-lymphocytes were done by known methods. Specifically, one-tenth ml aliquots of ^51 Cr-labelled target cell suspension were added to "half area" microtest plates and were incubated at 37° C. for 18 hours in a humidified atmosphere of 5% CO2 in air to permit the cells to adhere and spread on the floor of each well. Culture medium was then aspirated from each well and was replaced with 0.1 ml of tissue culture medium containing cells harvested from mixed leukocyte-tumor cultures which had been processed as described for murine mixed leukocute cultures, above. Control wells for measurement of spontaneous ^51 Cr release received medium without effector cells and wells for measurement of maximal releasable ^51 Cr received 0.1 ml of 2% sodium dodecyl sulfate in distilled water. After overnight incubation at 37° in a humidified atmosphere of 5% CO2 in air, 0.05 ml of cell-free supernatant was withdrawn from each well and the amount of released ^51 Cr was quantitated using a gamma spectrometer. The percentage of specific ^51 Cr release (CTL activity) and the percent inhibition of CTL activity were calculated with the same formulas used above for the murine CTL assay.
Tests conducted on human cytotoxic T-lymphocyte responses are reported as the mean±standard error of the mean from triplicate ^51 Cr release determinations on pooled cells from duplicate control or test cultures.

[3] = Test 1 (hexafluoro compounds), donor I, 1 × 10^-6 molar, 0.1% ethanol, effector to target 8:1
[4] = Test 1 (hexafluoro compounds), donor I, 1 × 10^-7 molar, 0.1% ethanol, effector to target 8:1

SMILES	inhibition at 10 µM ([1]; Mus musculus, T-lymphocyte, Table I, 1 × 10^-5 molar, vs vehicle control, read-out: Inhibition of CTL activity (%))	inhibition at 1 µM ([1]; Mus musculus, T-lymphocyte, Table I, 1 × 10^-6 molar, vs vehicle control, read-out: Inhibition of CTL activity (%))	inhibition at 0.1 µM ([1]; Mus musculus, T-lymphocyte, Table I, 1 × 10^-7 molar, vs vehicle control, read-out: Inhibition of CTL activity (%))	inhibition at 0.01 µM ([1]; Mus musculus, T-lymphocyte, Table I, 1 × 10^-8 molar, vs vehicle control, read-out: Inhibition of CTL activity (%))	inhibition at 0.001 µM ([1]; Mus musculus, T-lymphocyte, Table I, 1 × 10^-9 molar, vs vehicle control, read-out: Inhibition of CTL activity (%))	inhibition at 0.0001 µM ([1]; Mus musculus, T-lymphocyte, Table I, 1 × 10^-10 molar, vs vehicle control, read-out: Inhibition of CTL activity (%))	CTL activity (% specific ^51 Cr release) ([1]; Table I, 1 × 10^-5 molar)	CTL activity (% specific ^51 Cr release) ([1]; Table I, 1 × 10^-6 molar)	CTL activity (% specific ^51 Cr release) ([1]; Table I, 1 × 10^-7 molar)	CTL activity (% specific ^51 Cr release) ([1]; Table I, 1 × 10^-8 molar)	CTL activity (% specific ^51 Cr release) ([1]; Table I, 1 × 10^-9 molar)	CTL activity (% specific ^51 Cr release) ([1]; Table I, 1 × 10^-10 molar)	suppression of murine cytotoxic T-lymphocyte responses (in words) ([1]; in vitro)	inhibition at 0.1 µM [2]	inhibition at 1 µM [2]	CTL activity (% specific ^51 Cr release) [2, 3]	CTL activity (% specific ^51 Cr release) [2, 4]	inhibition at 1 µM [2, 3]	inhibition at 0.1 µM [2, 4]
C=C1/C(=C\C=C2/CCC[C@]3(C)[C@@H]([C@H](C)CC4CC(C)(O)C(=O)O4)CC[C@@H]23)C[C@@H](O)C[C@@H]1O (stereo partly drawn) [1α,25-(OH)2 --D3-(26,23)-lactone, 1α,25-Dihydroxycholecalciferol-26,23-lactone]	80%	63%	37%	9%	3%	7%	11 % specific ^51 Cr release	20 % specific ^51 Cr release	34 % specific ^51 Cr release	49 % specific ^51 Cr release	52 % specific ^51 Cr release	50 % specific ^51 Cr release	suppress murine cytotoxic T-lymphocyte responses	–	–	–	–	–	–
C=C1/C(=C\C=C2/CCC[C@]3(C)[C@@H]([C@H](C)CCCC(O)(C(F)(F)F)C(F)(F)F)CC[C@@H]23)C[C@@H](O)C[C@@H]1O [26,26,26,27,27,27-hexafluoro-1α,25-dihydroxycholecalciferol]	–	–	–	–	–	–	–	–	–	–	–	–	–	64%	77%	15 ± 2 % specific ^51 Cr release	23 ± 3 % specific ^51 Cr release	–	–
C=C1/C(=C\C=C2/CCC[C@]3(C)[C@@H]([C@H](C)C=CCC(O)(C(F)(F)F)C(F)(F)F)CC[C@@H]23)C[C@@H](O)C[C@@H]1O [26,26,26,27,27,27-Hexafluoro-1α,25-dihydroxy-Δ^22-cholecalciferol]	–	–	–	–	–	–	–	–	–	–	–	–	–	–	–	13 ± 0.1 % specific ^51 Cr release	23 ± 2 % specific ^51 Cr release	80%	64%
